The test concerns the target T1, human LMPTP-A (Homo sapiens, UniProt P24666).
T1 sequence (P24666 1-158): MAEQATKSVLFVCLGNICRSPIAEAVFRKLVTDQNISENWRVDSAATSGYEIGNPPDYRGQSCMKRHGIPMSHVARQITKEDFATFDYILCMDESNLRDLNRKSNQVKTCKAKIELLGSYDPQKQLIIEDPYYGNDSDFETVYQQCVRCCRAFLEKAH
As to the kind of experiment: Enzyme Assay of Inhibition of LMPTP-A (phosphatase assay, OMFP or pNPP substrate). To be noted: Bis-Tris pH 6.0, 37° C. The format is biochemical. In short, it runs like this: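 Buffer 50 mM Bis-Tris pH 6.0, 1 mM DTT, 0.01% Triton X-100, 37 °C; OMFP read continuously (485/525 nm) or pNPP stopped with NaOH, 405 nm. IC50 from concentration vs % activity. Selectivity: 40 μM compound with 0.4 mM OMFP or 5 mM pNPP; reversibility: 50 nM enzyme, 10 μM compound, 5 min, 100× dilution.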

Some results are limits rather than exact numbers.

As usually defined, the IC50 is the concentration that inhibits the measured activity by half.

Consider `CCN(CC)C(=O)c1ccc(-c2cc(NCCN3CCOCC3)c3cnccc3n2)cc1` [N,N-diethyl-4-(4-(2-morpholinoethylamino)-1,6-naphthyridin-2-yl)benzamide], for which the IC50 lay within 1000 to 20000 nM.

As to `CCN(CC)C(=O)c1ccc(-c2cc(NCCCN3CCN(C)CC3)c3cnccc3n2)cc1` [N,N-diethyl-4-(4-(3-(4-methylpiperazin-1-yl)propylamino)-1,6-naphthyridin-2-yl)benzamide], the IC50 lay in the range of 1000 to 20000 nM.

`CCN(CC)C(=O)c1ccc(-c2cc(NCCCN3CCCCC3)c3ncccc3n2)cc1` [N,N-diethyl-4-(4-(3-(piperidin-1-yl)propylamino)-1,5-naphthyridin-2-yl)benzamide]: the IC50 was at least 20000 nM.

Regarding `CCN(CC)C(=O)c1ccc(-c2cc(NCCCN3CCCCC3)c3cnccc3n2)cc1` [N,N-diethyl-4-(4-(3-(piperidin-1-yl)propylamino)-1,6-naphthyridin-2-yl)benzamide], the IC50 is at most 1000 nM.

On to `CCN(CC)C(=O)c1ccc(-c2cc(NCCCN3CCCCC3)c3ccncc3n2)cc1` [N,N-diethyl-4-(4-(3-(piperidin-1-yl)propylamino)-1,7-naphthyridin-2-yl)benzamide], for which the IC50 was at least 20000 nM.

Molecule `CCN(CC)C(=O)c1ccc(-c2cc(NCCCN3CCCCC3)c3cccnc3n2)cc1` [N,N-diethyl-4-(4-(3-(piperidin-1-yl)propylamino)-1,8-naphthyridin-2-yl)benzamide] displayed an IC50 of at least 20000 nM.

Molecule `CCN(CC)C(=O)c1ccc(-c2cc(NCCCN3CCCCC3)c3cnccc3n2)c(C(F)(F)F)c1` [N,N-diethyl-4-(4-((3-(piperidin-1-yl)propyl)amino)-1,6-naphthyridin-2-yl)-3-(trifluoromethyl)benzamide] came in with an IC50 of at most 1000 nM.

For `CCN(CC)C(=O)c1ccc(-c2cc(NC3CCNC3)c3cnccc3n2)cc1` (stereo not drawn) [N,N-diethyl-4-(4-(pyrrolidin-3-ylamino)-1,6-naphthyridin-2-yl)benzamide], the half-maximal inhibitory concentration (IC50) lay in the range of 1000 to 20000 nM.

The molecule `CCN(CC)C(=O)c1ccc(-c2cc(NC3CCOCC3)c3cnccc3n2)cc1` [N,N-diethyl-4-(4-(tetrahydro-2H-pyran-4-ylamino)-1,6-naphthyridin-2-yl)benzamide] registered an IC50 of 1000 to 20000 nM.

The molecule `CCN(CC)C(=O)c1nc2cc(-c3cc(NCCCN4CCCCC4)c4cnccc4n3)ccc2[nH]1` [N,N-diethyl-5-(4-((3-(piperidin-1-yl)propyl)amino)-1,6-naphthyridin-2-yl)-1H-benzo[d]imidazole-2-carboxamide] returned an IC50 of 1000 to 20000 nM.

For the molecule `CCN(CC)C(=O)c1cc2ccc(-c3cc(NCCCN4CCCCC4)c4cnccc4n3)cc2s1` [N,N-diethyl-6-(4-(3-(piperidin-1-yl)propylamino)-1,6-naphthyridin-2-yl)benzo[b]thiophene-2-carboxamide], the half-maximal inhibitory concentration (IC50) was at most 1000 nM.

As to `Cn1c(C(=O)NC2CCS(=O)(=O)CC2)cc2cc(-c3cc(NCCCN4CCCCC4)c4cnccc4n3)ccc21` [N-(1,1-dioxidotetrahydro-2H-thiopyran-4-yl)-1-methyl-5-(4-((3-(piperidin-1-yl)propyl)amino)-1,6-naphthyridin-2-yl)-1H-indole-2-carboxamide], the IC50 was at most 1000 nM.

For `CN1CCC(NC(=O)CCc2ccc(-c3cc(NC4CCN(C)CC4)c4cnccc4n3)cc2)CC1` [N-(1-Methylpiperidin-4-yl)-3-(4-(4-(1-methylpiperidin-4-ylamino)-1,6-naphthyridin-2-yl)phenyl)propanamide], the IC50 is at most 1000 nM.

The molecule `CN1CCC(NC(=O)CCOCc2ccc(-c3cc(NCCCN4CCCCC4)c4cnccc4n3)cc2)CC1` [N-(1-Methylpiperidin-4-yl)-3-(4-(4-(3-(piperidin-1-yl)propylamino)-1,6-naphthyridin-2-yl)benzyloxy)propanamide] gave an IC50 of at most 1000 nM.

As for `CN1CCC(NC(=O)c2ccc(-c3cc(NC4CCN(C)CC4)c4cnccc4n3)cc2)CC1` [N-(1-Methylpiperidin-4-yl)-4-(4-((1-methylpiperidin-4-yl)amino)-1,6-naphthyridin-2-yl)benzamide], the IC50 lay within 1000 to 20000 nM.

Source of the values: patent US11731986B2 (Sanford Burnham Prebys Medical Discovery Institute, priority 2017, dated 2023).
